Source: patent publication US20110306606A1, “NOVEL 2,6-SUBSTITUTED-3-NITROPYRIDINE DERIVATIVE, METHOD FOR PREPARING SAME, AND PHARMACEUTICAL COMPOSITION INCLUDING SAME” (priority 2008, published 2011)
Read-outs that look alike come from different tables or passages of the source.

Legend:
[1] = test system: Osteoblasts (Calvarial cells); test: Cytotoxicity test (MTT); details: 1 μM compound, 72 hours, in comparison with vehicle control
[2] = test system: formation of osteoclasts in co-culture of bone marrow cells and osteoblasts; test: Osteoclastogenesis inhibition via co-culture system (TRAP staining); assay type: cell-based, mice; details: 1 μM compound, 7 days co-culture, TRAP-positive multinucleated osteoclasts vs vehicle control
Method: Osteoclastogenesis inhibitory effects of the compounds of the present invention were evaluated via a co-culture system (Reference: Endocrinology 137(1996), 2187 to 2190, E. Jimi et al.). A specific experimental method is as follows.
1) Preparation of Bone Marrow Cells and Osteoblasts
Femora and tibia were aseptically dissected from 6 to 8-week-old male ddY mice to harvest bone marrow cells by a conventional method using a syringe. In brief, tissues were removed from the dissected bone, the bone ends were cut off with scissors, and the bone marrow was isolated by pushing a medium-containing syringe (23G) against the one end of the cut bone. The isolated bone marrow was subjected to repeated piston movement of a syringe such that single cells were obtained (Reference: Endocrinology 123(1988), 2600 to 2602, Takahashi et al.). After removal of red blood cells within the bone marrow, the bone marrow cells recovered by centrifugation were placed in an α-MEM supplemented with 10% fetal bovine serum (FBS), followed by counting of nucleated cells and then were immediately used for a co-culture system.
2) Osteoclastogenesis Inhibition Experiment Via Co-Culture System
As the medium used for a co-culture system, a differentiation medium with the addition of differentiation factors 1α,25-dihydroxyvitamin D3 (10^−8M) and dexamethasone (10^−8M) to a-MEM supplemented with 10% FBS was used for the induction of osteoclastogenesis. First, the compounds dissolved in dimethyl sulfoxide (DMSO) at a concentration of 1 mM were diluted to 2 μM using the above-mentioned differentiation medium. As a vehicle control group, 0.2% (v/v) DMSO was added to the medium. 100 μL/well of each medium was added to 96-well plates. In addition, the above prepared bone marrow cells and osteoblasts were plated onto 96-well plates at a density of 1×10^5 cells/50 μL/well and 3×10^3 cells/50 μL/well, respectively. The total volume/well was 200 μL and the final compound concentration was 1 μM. The control group was 0.1% DMSO. The cells were cultured with exchange of the culture media with fresh media containing differentiation factors and test materials at an interval of 2 to 3 days.
7 days after culturing of cells, the formation of multinucleated osteoclasts was confirmed by microscopic examination, the medium was removed from the wells and then the cells were fixed in a 10% phosphate-buffered formalin solution. The degree of formation of mature osteoclasts was measured taking advantage of the characteristics of osteoclasts showing a positive reaction to a tartrate-resistant acid phosphatase (TRAP) staining solution. The TRAP staining solution was prepared in a manner such that naphthol AS-MS phosphate as a substrate and a coloring agent (Fast Red Violet LB salt) were dissolved in N,N-dimethylformamide, and a 0.1N NaHCO3 buffer solution containing 50 mM of tartaric acid was added thereto. Among the TRAP-positive cells under a light microscope, multinucleated osteoclasts having 6 to 7 nuclei were regarded as mature osteoclasts.
The degree of inhibition of osteoclastogenesis was calculated according to the following equation 1. The results are summarized in Table 27 below (Experiments were carried out for 4 wells/experimental group (n=4), and the results are given in terms of mean±standard deviation)
Inhibition of osteoclastogenesis(%)=(1−numbers of osteoclasts observed in experimental group/numbers of osteoclasts observed in vehicle control group)×100(%) [Equation 1]

[3] = test system: Osteoblasts (Calvarial cells); test: Alkaline phosphatase (ALP) activity in osteoblasts (Calvarial cells); assay type: cell-based, mice; details: Mus musculus, 72 h; 1 μM compound, 3 days, Calvarial cell; read-out: ALP activity (1 μM, % of Control) Calvarial cell
Method: Differentiation and activity of osteoblasts were indirectly evaluated by measuring an ALP activity having a close relationship with osteogenesis.
Osteoblasts (Calvarial cells) prepared in Experimental Example 1 and MC3T3-E1 cells (available from RIKEN Cell Bank, Japan) were collected in α-MEM supplemented with 10% FBS, followed by cell counting. The cells were dispensed into 24-well cultureware at a density of 2×10^4 cells/well. After culturing of the cells for 24 hours, the culture media were discarded and replaced with fresh media in which test compounds were diluted to a concentration of 1 μM (1 mL/well). In addition, the vehicle control group containing 0.1% DMSO was also treated. […] When the experiment was terminated, the supernatant was removed and the cells were washed three times with cold phosphate buffer at 4°. 0.2% Triton X-100 was added to the washed cells which were then subjected to three cycles of freezing at −70° and thawing at room temperature for the complete lysis of cells. The cell extracts were pooled and centrifuged to collect the cell supernatant which was used for the measurement of ALP activity and proteins. The protein concentration was measured using a BCA assay kit (manufactured by Sigma-Aldrich). For the measurement of ALP activity, p-nitrophenylphosphate was added to the cell supernatant which was then incubated at 37° for 30 minutes, and the reaction was terminated with the addition of 50 μL of 0.2N sodium hydroxide. The standard curve was plotted at the absorbance of 405 nm using p-nitrophenol as a standard material and then the absorbance of test materials thus reacted was measured to determine the production amount of p-nitrophenol.
The ALP activity was calculated by dividing the amount of p-nitrophenol produced from each test material by the protein amount and the reaction time. Therefore, the unit of ALP activity was given in terms of p-nitrophenol/μg protein/min. The results are given in Tables 28-1 and 28-2 where the ALP activity unit of each test material was given in terms of % change through the comparison between the individual test materials and the vehicle control group.

[4] = test system: Osteoblasts (Calvarial cells); details: ICR, mouse, 72 h, 1 μM

Row | SMILES | Cell viability (%) Calvarial cell [1] | Osteoclastogenesis inhibition (%) 1 μM [2] | activity at 1 µM [3] | Cell viability (%) Calvarial cell [4]
1 | O=[N+]([O-])c1ccc(NCc2cccnc2)nc1Nc1ccc(N2CCNCC2)c(F)c1 [Compound 220, 2-[(3-fluoro-4-piperazino)phenylamino]-6-[(3-pyridyl)methylamino]-3-nitropyridine] | 93% | 82% | – | –
2 | NC1CCN(c2ccc([N+](=O)[O-])c(Nc3ccc(N4CCSCC4)c(F)c3)n2)CC1 [Compound 214, 2-[(3-fluoro-4-thiomorpholino)phenylamino]-6-(4-aminopiperidino)-3-nitropyridine] | 103% | 98% | – | –
3 | CC(C)CNc1ccc([N+](=O)[O-])c(Nc2ccc(N3CCC(O)CC3)c(F)c2)n1 [Compound 238, 2-{[3-fluoro-4-(4-hydroxypiperidino)]phenylamino}-6-(isobutylamino)-3-nitropyridine] | 106% | 75% | – | –
4 | CN(CC1OCCO1)c1ccc([N+](=O)[O-])c(Nc2ccc(-n3ccnc3)cc2)n1 [Compound 89] | 89% | 73% | – | –
5 | NC1CCN(c2ccc([N+](=O)[O-])c(Nc3ccc(N4CCOCC4)c(F)c3)n2)CC1 [Compound 202, 2-[(3-fluoro-4-morpholino)phenylamino]-6-(4-aminopiperidino)-3-nitropyridine] | 96% | 90% | – | –
6 | O=[N+]([O-])c1ccc(NCc2cccnc2)nc1Nc1ccc(N2CCSCC2)c(F)c1 [Compound 209, 2-[(3-fluoro-4-thiomorpholino)phenylamino]-6-[(3-pyridyl)methylamino]-3-nitropyridine] | 99% | 85% | – | –
7 | O=[N+]([O-])c1ccc(NCc2ccncc2)nc1Nc1ccc(N2CCOCC2)c(F)c1 [Compound 198, 2-[(3-fluoro-4-morpholino)phenylamino]-6-[(4-pyridyl)methylamino]-3-nitropyridine] | 96% | 84% | – | –
8 | CN1CCN(c2ccc([N+](=O)[O-])c(Nc3ccc(N4CCSCC4)c(F)c3)n2)CC1 [Compound 212, 2-[(3-fluoro-4-thiomorpholino)phenylamino]-6-(4-methylpiperazin-1-yl)-3-nitropyridine] | 100% | 85% | – | –
9 | CNc1ccc([N+](=O)[O-])c(Nc2ccc(N)cc2)n1 [Compound 57, 2-[4-(amino)phenylamino]-6-(methylamino)-3-nitropyridine] | – | – | 112% | 103%
10 | CC(C)Nc1ccc([N+](=O)[O-])c(Nc2ccc(N)cc2)n1 [Compound 58, 2-[4-(amino)phenylamino]-6-(isopropylamino)-3-nitropyridine] | – | – | 127% | 107%
11 | O=[N+]([O-])c1ccc(NCc2ccncc2)nc1Nc1ccc(N2CCNCC2)c(F)c1 [Compound 221, 2-[(3-fluoro-4-piperazino)phenylamino]-6-[(4-pyridyl)methylamino]-3-nitropyridine] | 91% | 89% | – | –
12 | O=[N+]([O-])c1ccc(N2CCC(O)CC2)nc1Nc1ccc(N2CCCCC2)c(F)c1 [Compound 226, 2-[(3-fluoro-4-piperidino)phenylamino]-6-(4-hydroxypiperidino)-3-nitropyridine] | 104% | 66% | – | –
13 | CC(C)Nc1ccc([N+](=O)[O-])c(Nc2ccc(-n3ccnc3)cc2)n1 [Compound 87, 2-[4-(imidazol-1-yl)phenylamino]-6-(isopropylamino)-3-nitropyridine] | – | – | 116% | 101%
14 | CC(C)Nc1ccc([N+](=O)[O-])c(Nc2ccc(C(C)(C)C)cc2)n1 [Compound 31, 2-[4-(t-butyl)phenylamino]-6-(isopropylamino)-3-nitropyridine] | – | – | 134% | 108%
15 | Cc1ccc(Nc2nc(N3CCOCC3)ccc2[N+](=O)[O-])cc1 [Compound 14, 2-(4-methylphenylamino)-6-morpholino-3-nitropyridine] | – | – | 135% | 99%
16 | Nc1cccc(Nc2nc(N3CCC(N)CC3)ccc2[N+](=O)[O-])c1 [Compound 79, 2-[3-(amino)phenylamino]-6-(4-aminopiperidino)-3-nitropyridine] | – | – | 133% | 99%
17 | CC(=O)c1cccc(Nc2nc(NC(C)(C)C)ccc2[N+](=O)[O-])c1 [Compound 104, 2-(3-acetylphenylamino)-6-(t-butylamino)-3-nitropyridine] | – | – | 112% | 97%
18 | Nc1cccc(Nc2nc(NCc3cccnc3)ccc2[N+](=O)[O-])c1 [Compound 80, 2-[3-(amino)phenylamino]-6-[(3-pyridyl)methylamino]-3-nitropyridine] | – | – | 116% | 102%
19 | Cc1nc(-c2ccc(Nc3nc(NC(C)C)ccc3[N+](=O)[O-])cc2)cs1 [Compound 133, 2-[4-(2-methylthiazol-4-yl)phenylamino]-6-(isopropylamino)-3-nitropyridine] | – | – | 122% | 102%
20 | Cc1nc(-c2ccc(Nc3nc(NC(C)(C)C)ccc3[N+](=O)[O-])cc2)cs1 [Compound 140, 2-[4-(2-methylthiazol-4-yl)phenylamino]-6-(t-butylamino)-3-nitropyridine] | – | – | 118% | 102%
21 | CC(=O)c1cccc(Nc2nc(N3CCC(O)CC3)ccc2[N+](=O)[O-])c1 [Compound 99, 2-(3-acetylphenylamino)-6-(4-hydroxypiperidino)-3-nitropyridine] | – | – | 189% | 104%
